Key:
[1] = tested on: prim-AML ROS-low LSCs; assay: In vitro viability of sorted ROS-low LSCs from primitive AML; assay type: cell-based, human; settings: in vitro treatment
Experimental: (§1) FIG. 2 is a series of charts showing viability of sorted ROSlow LSCs from mono-AML (n=5) and prim-AML (n=7) after 24 hours in vitro treatment with venetoclax alone or in combination with a fixed dose of 1.5 μM azacitidine. Each data point was expressed as mean±SD of technical triplicates. All viability data were normalized to untreated control.
(§2) To understand if the lack of response by monocytic AML to VEN+AZA is driven by intrinsic mechanisms, VEN+AZA sensitivity was directly evaluated in vitro, where protection from extrinsic factors such as the microenvironment is minimal. For these experiments, a second cohort of AML specimens with sufficient material to allow for more robust in vitro experimentation was used (herein referred to as Research Cohort 2). Using the surface expression profile of CD117, CD11b, CD68 and CD64, the primitive or monocytic compartment was isolated for analysis (herein referred to as prim-AML or mono-AML, respectively). Prim-AML has the phenotype of CD117+/CD11b−/CD68−/CD64− and mono-AML is predominantly CD117−/CD11b+/CD68+/CD64+. The in vitro drug sensitivity of these populations is shown in FIG. 2 and closely correlates with relative responses observed for the Clinical Cohort.
(§3) The relative sensitivity of LSCs derived from primitive versus monocytic AML specimens was analyzed. […]

[2] = tested on: mono-AML ROS-low LSCs; assay: In vitro viability / cell death of sorted ROS-low LSCs from monocytic AML; assay type: cell-based, human; settings: 24 hours in vitro treatment; FIG. 2, FIG. 3
Experimental: as §1
FIG. 3 is a series of bar graphs viability of three mono-AMLs from the Research Cohort 2 after 24 hours in vitro treatment with various single or combinations drugs.
as §2, with “The in vitro drug sensitivity of these populations is shown in FIG. 2 and closely correlates with relative responses observed for the Clinical Cohort.” left out
as §3

| SMILES | sensitivity/resistance (viability) of prim-AML ROS-low LSCs [1] | sensitivity/resistance (viability) of mono-AML ROS-low LSCs [2] |
| --- | --- | --- |
| Nc1ncn([C@@H]2O[C@H](CO)[C@@H](O)[C@H]2O)c(=O)n1 [AZA, azacitidine] | sensitive |  |
| COCCn1c2c([n+](Cc3cnccn3)c1C)C(=O)c1ccccc1C2=O [YM155] | highly resistant | sensitive |

Source: US20220136068A1, “METHODS OF DETECTING AND TREATING VENETOCLAX-RESISTANT ACUTE MYELOID LEUKEMIA” (The Regents of the University of Colorado, A Body Corporate, priority 2019, published 2022)
